Source: ChEMBL document CHEMBL1201862, “PubChem BioAssay data set” (2004)
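Five concentrations, 48 hours, 96-well plates. GI50 = concentration required for 50% inhibition of growth.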 Activity calls are given as the source filed them. Rule as the data show it: active = GI50 up to about 1.1 µM and inactive = higher.

How the values were obtained:
Assay in all cases: inhibition of tumour cell growth, NCI panel, 48 h
[1] = test system: 786-0
[2] = test system: A549
[3] = test system: ACHN
[4] = test system: BT-549
[5] = test system: CAKI-1
[6] = test system: CCRF-CEM
[7] = test system: COLO 205
[8] = test system: DU-145
[9] = test system: EKVX
[10] = test system: HCT-116
[11] = test system: HCT-15
[12] = test system: HL-60
[13] = test system: HOP-62
[14] = test system: HOP-92
[15] = test system: HT-29
[16] = test system: Hs-578T
[17] = test system: IGROV-1
[18] = test system: K562
[19] = test system: KM12
[20] = test system: LOX IMVI
[21] = test system: M14
[22] = test system: MDA-MB-231
[23] = test system: MDA-MB-435
[24] = test system: MDA-N
[25] = test system: Malme-3M
[26] = test system: NCI-H226
[27] = test system: NCI-H23
[28] = test system: NCI-H460
[29] = test system: NCI-H522
[30] = test system: NCI/ADR-RES
[31] = test system: OVCAR-3
[32] = test system: OVCAR-4
[33] = test system: OVCAR-5
[34] = test system: OVCAR-8
[35] = test system: PC-3
[36] = test system: RXF 393
[37] = test system: SF-268
[38] = test system: SF-295
[39] = test system: SF-539
[40] = test system: SK-MEL-28
[41] = test system: SK-MEL-2
[42] = test system: SK-MEL-5
[43] = test system: SK-OV-3
[44] = test system: SN12C
[45] = test system: SNB-19
[46] = test system: SW-620
[47] = test system: T47D
[48] = test system: TK-10
[49] = test system: U-251
[50] = test system: UACC-257
[51] = test system: UACC-62
[52] = test system: UO-31

With `CC(C)CCC[C@@H](C)[C@H]1CCC2C3CC=C4C[C@@H](Oc5c6ccccc6nc6ccccc56)CCC4C3CCC21` (some centres not stated) the GI50 [1] was > 50 µM (inactive), the GI50 [2] was > 50 µM (inactive) and the GI50 [3] was > 50 µM (inactive). For the same compound, the GI50 [4] was > 50 µM (inactive), the GI50 [5] was > 50 µM (inactive) and the GI50 [6] was > 50 µM (inactive). For the same compound, the GI50 [7] was > 50 µM (inactive), the GI50 [8] was > 50 µM (inactive) and the GI50 [9] was > 50 µM (inactive). For the same compound, the GI50 [10] was > 50 µM (inactive), the GI50 [11] was > 50 µM and the GI50 [12] was > 50 µM (inactive). The GI50 [13] was > 50 µM (inactive), the GI50 [14] was > 50 µM (inactive) and the GI50 [15] was > 50 µM (inactive). For the same compound, the GI50 [16] was > 50 µM (inactive), the GI50 [17] was > 50 µM (inactive) and the GI50 [18] was > 50 µM (inactive). The GI50 [19] was > 50 µM (inactive), the GI50 [20] was > 50 µM (inactive) and the GI50 [21] was > 50 µM (inactive). For the same compound, the GI50 [22] was 39.9 µM (inactive), the GI50 [23] was > 50 µM (inactive) and the GI50 [24] was > 50 µM (inactive). For the same compound, the GI50 [25] was > 50 µM (inactive), the GI50 [26] was > 50 µM (inactive) and the GI50 [27] was > 50 µM (inactive). For the same compound, the GI50 [28] was > 50 µM (inactive), the GI50 [29] was 36.4 µM (inactive) and the GI50 [30] was > 50 µM (inactive). For the same compound, the GI50 [31] was > 50 µM (inactive), the GI50 [32] was > 50 µM (inactive) and the GI50 [33] was > 50 µM (inactive). The GI50 [34] was > 50 µM (inactive), the GI50 [35] was > 50 µM (inactive) and the GI50 [36] was > 50 µM (inactive). The GI50 [37] was > 50 µM (inactive), the GI50 [38] was > 50 µM (inactive) and the GI50 [39] was > 50 µM (inactive). For the same compound, the GI50 [40] was > 50 µM (inactive), the GI50 [41] was > 50 µM (inactive) and the GI50 [42] was > 50 µM (inactive). For the same compound, the GI50 [43] was > 50 µM (inactive), the GI50 [44] was > 50 µM (inactive) and the GI50 [45] was > 50 µM (inactive). For the same compound, the GI50 [46] was > 50 µM (inactive), the GI50 [47] was > 50 µM (inactive) and the GI50 [48] was > 50 µM (inactive). The GI50 [49] was > 50 µM (inactive), the GI50 [50] was > 50 µM (inactive) and the GI50 [51] was > 50 µM (inactive). For the same compound, the GI50 [52] was 25.6 µM (inactive).
